Test results from patent US20180156808A1, “METHODS FOR DIAGNOSIS AND PROGNOSIS OF CANCERS OF EPITHELIAL ORIGIN” (Children's Medical Center Corporation, priority 2004, published 2018).

T1: ADAM 12-S (Homo sapiens, UniProt O43184)
T1 construct: The full-length human ADAM 12-S gene was cloned into plasmid (p1151); made in house; host or cells: Cos-7 cells (ATCC, CRL 1651)
T1 sequence (O43184 208-738 isoform O43184-2 limits assumed): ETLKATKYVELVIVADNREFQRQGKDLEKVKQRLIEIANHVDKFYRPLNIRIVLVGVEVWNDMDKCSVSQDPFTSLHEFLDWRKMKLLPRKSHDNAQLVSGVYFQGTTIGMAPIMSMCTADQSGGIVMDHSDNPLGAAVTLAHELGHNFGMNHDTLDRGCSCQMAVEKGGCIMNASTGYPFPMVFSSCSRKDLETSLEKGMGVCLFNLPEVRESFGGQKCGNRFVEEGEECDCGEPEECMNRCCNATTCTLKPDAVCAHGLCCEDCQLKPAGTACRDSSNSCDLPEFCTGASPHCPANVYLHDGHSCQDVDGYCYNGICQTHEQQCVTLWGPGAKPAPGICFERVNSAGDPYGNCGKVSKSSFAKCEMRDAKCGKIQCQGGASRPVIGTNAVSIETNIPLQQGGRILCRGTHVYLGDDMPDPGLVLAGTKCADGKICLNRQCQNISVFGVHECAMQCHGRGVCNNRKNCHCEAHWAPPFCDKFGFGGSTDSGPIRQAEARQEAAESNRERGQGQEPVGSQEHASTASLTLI
T1 sequence (O43184 29-207 partner limits assumed): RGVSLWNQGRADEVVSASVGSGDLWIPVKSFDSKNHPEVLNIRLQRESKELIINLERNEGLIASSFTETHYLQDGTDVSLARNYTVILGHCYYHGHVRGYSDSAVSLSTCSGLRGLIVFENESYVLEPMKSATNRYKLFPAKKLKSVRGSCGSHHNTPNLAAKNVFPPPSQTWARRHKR


Target: T1, ADAM 12-S
Test: Inhibition of gelatin degradation by ADAM 12 (SDS-PAGE, Coomassie staining)
Type: biochemical
Details: ADAM 12 160 nM, 37° C., 18 h; for inhibition of gelatin degradation by ADAM 12: 30 μg gelatin
Method: The full-length human ADAM 12-S gene was cloned into plasmid (p1151) and transfection of Cos-7 cells (ATCC, CRL 1651) was conducted as previously described (5). Expressed recombinant ADAM 12-S secreted into the conditioned medium, was purified as previously described with minor modifications. Briefly, conditioned media from transfected Cos-7 cells was subjected to successive steps of SP Sepharose and ConA Sepharose chromatography as described (6). ADAM 12-S containing fractions from the ConA Sepharose column were pooled and after buffer exchange applied to a Vivapure H Mini Q column (VivaScience, Carlsbad, Calif.) pre-equilibrated with buffer A containing 0.05% CHAPS. Pure ADAM 12-S was detected in the flow-through fraction as determined by SDS-PAGE and immunoblot analysis.
Gelatin, Type IV collagen, fibronectin and casein-degrading activity of ADAM 12-S was measured as previously described (14). ADAM 12-S (1 μM) was mixed with non-reducing sample buffer and separated on a 10% polyacrylamide gel containing either 0.1% gelatin, 0.1% Type IV collagen or 0.02% fibronectin and a 12% polyacrylamide gel containing 0.1% casein. After electrophoresis, the gel was washed with 2.5% Triton X-100 for 30 min. Substrate digestion was conducted by incubating the gel in 50 mM Tris, pH 7.6, containing 5 mM CaCl2, 1 μM ZnCl2 and 0.02% NaN3 at 37° C. for 18 h. Gels were stained with 0.1% Coomassie and bands of enzyme activity were detected as zones of clearance on a background of uniform blue staining. […] For inhibition assays, ADAM 12 (160 nM) was incubated with 30 μg gelatin in assay buffer (50 mM Tris, pH 7.5) in the presence or absence of various inhibitors 5 mM 1, 10-phenanthroline, 5 mM EDTA, 1 mM Marimastat or two different concentrations (100 and 500 nM) of either TIMP-1, TIMP-2, TIMP-3 or TIMP-4 in a final volume of 30 μl at 37° C. for 18 h. Reactions were stopped with the addition of non-reducing sample buffer and the samples resolved by SDS-PAGE analysis followed by Coomassie staining.

[1] = inhibitor 100 and 500 nM (even at concentrations 5-fold higher than the enzyme)

| inhibition of gelatin degradation by ADAM 12 (inhibitor 5 mM) | inhibition of the gelatinase activity of ADAM 12 [1] | Molecule | other results |
| --- | --- | --- | --- |
| inhibited | – | O=C(O)CN(CCN(CC(=O)O)CC(=O)O)CC(=O)O [EDTA] | – |
| – | did not inhibit | TIMP-1: endogenous inhibitor | – |
| – | – | CNC(=O)[C@@H](NC(=O)[C@H](CC(C)C)[C@H](O)C(=O)NO)C(C)(C)C [Marimastat] | inhibition of gelatin degradation by ADAM 12 (inhibitor 1 mM): partial inhibition |
| inhibited | – | c1cnc2c(c1)ccc1cccnc12 [1, 10-phenanthroline] | – |
| – | – | TIMP-3: endogenous inhibitor (protein, UniProt P35625 24-211, looked up) Metalloproteinase inhibitor 3: CTCSPSHPQDAFCNSDIVIRAKVVGKKLVKEGPFGTLVYTIKQMKMYRGFTKMPHVQYIHTEASESLCGLKLEVNKYQYLLTGRVYDGKMYTGLCNFVERWDQLTLSQRKGLNYRYHLGCNCKIKSCYYLPCFVTSKNECLWTDMLSNFGYPGYQSKHYACIRQKGGYCSWYRGWAPPDKSIINATDP | inhibition of the gelatinase activity of ADAM 12 (inhibitor 500 nM): effective inhibitor |
| – | did not inhibit | TIMP-4: endogenous inhibitor (protein, UniProt Q99727 30-224, looked up) Metalloproteinase inhibitor 4: CSCAPAHPQQHICHSALVIRAKISSEKVVPASADPADTEKMLRYEIKQIKMFKGFEKVKDVQYIYTPFDSSLCGVKLEANSQKQYLLTGQVLSDGKVFIHLCNYIEPWEDLSLVQRESLNHHYHLNCGCQITTCYTVPCTISAPNECLWTDWLLERKLYGYQAQHYVCMKHVDGTCSWYRGHLPLRKEFVDIVQP | – |
